What was measured:
[1] = tested on: BJ-TERT/LT/ST/RAS^V12 cells; assay: Alamar Blue viability assay; assay type: cell-based, human
Description: (a) Calu-1 lung carcinoma cells harboring oncogenic KRAS were infected with lentivirus containing shRNAs targeting KRAS or GFP. Sequences of shRNAs are indicated by starting nucleotide (nt) in the KRAS mRNA coding sequence. Cells were treated with erastin and viability measured by Trypan Blue exclusion. (b) Knockdown of KRAS was confirmed by western blot. (c,d) A673 cells harboring oncogenic BRAF were infected with lentiviral shRNAs targeting BRAF exon 5 (c) or the 5′ UTR (d), luciferase (LUC) (c) or GFP (d). Cells were treated with erastin and viability measured using Alamar Blue (c) and Trypan Blue (d). (e) Knockdown of BRAF was confirmed by western blot. […] BJ-TERT/LT/ST/RAS^V12 cells were treated with erastin alone or in with a MEK inhibitor U0126 (20 μM), MEK inhibitor I (10 μM) or MEK 1/2 inhibitor (50 μM). After 48 h, viability was determined using Trypan Blue. (g) Structures of certain erastin and related analogs. (h) and (i) Dose-response curves were measured for erastin A3 and erastin B2 in BJ-TERT/LT/ST/RAS^V12 cells (black squares) or BJ-TERT cells (grey circles). (j) Calu-1 lung carcinoma cells harboring oncogenic KRAS were infected with lentivirus containing shRNAs targeting KRAS or GFP. Sequences of shRNAs are indicated by starting nucleotide (nt) in the KRAS mRNA coding sequence. Cells were treated with erastin and viability (y-axis) measured by Trypan Blue exclusion. Cells were treated with erastin for 24 hours, and percent inhibition of viability (y-axis) measured using Alamar Blue (k) and Trypan Blue (l). (m) Structures of erastin and related analogs. (n) Dose-response curves were measured for erastin A6, erastin B2, erastin A8 and erastin A9 in BJ-TERT/LT/ST/RAS^V12 cells (squares) or BJ-TERT cells (circles) using Alamar Blue.
Alamar Blue metabolism: 10% Alamar Blue was added to assay plates, which were then incubated for an additional 16 hours. Red fluorescence, resulting from reduction of Alamar Blue, was detected on a Victor3 platereader (ex: 530, em: 590).
Table 2. Activity of RAS-selective lethal compound erastin in tumor cell lines. IC50 values (ng/mL) are shown using the Alamar Blue viability assay. BJ engineered tumor cells express TERT, LT, ST, and oncogenic RAS. Isogenic RAS^V12 lacking cells are identical but lack HRAS^V12. BJ-DRD cells are derived from BJ cells and contain TERT, oncogenic RAS, a truncated from of p53 (p53DD) that disrupts the tetramerization of endogenous p53, a CDK4(R24C) mutant resistant to inhibition by p16INK4A and p151NK4B (the major negative regulators of CDK4) and cyclin D1. These latter protein substitute for LT. HCT-116, A549, Calu-1, and MIA PaCa-2 are tumor cells derived from cancers (colon, lung, lung and pancreatic, respectively) known to have activating mutations in RAS.

Calu-1 cells = assay: Sensitivity of Calu-1 lung carcinoma cells to erastin; assay type: cell-based; conditions: Homo sapiens; Calu-1 lung carcinoma cells with activating KRAS mutation
Description: Erastin was discovered, e.g., in a screen for oncogenic-HRAS-selective lethal compounds. KRAS is more frequently mutated in human cancers than HRAS. Thus, whether erastin is selectively lethal to tumor cells harboring oncogenic KRAS was tested. Calu-1 is a lung carcinoma cell line (Calu-1) with an activating mutation in KRAS. In certain embodiments, Calu-1 cells were sensitive to erastin (IC50=5 μM). Two different lentiviral constructs were used to reduce expression of mutant KRAS.
(Left panel) Calu-1 cells that had been infected with lentiviruses expressing shRNAs targeting GFP (as a control) or KRAS (targeting 19 nucleotides starting at nucleotide 269 or 509) were seeded in 6-well plates, treated with erastin and viability measured using Trypan Blue exclusion on a Beckman Vi-Cell. Error bars represent one SD. (Right panel) Western blot showing KRAS knockdown in Calu-1 cells. Top band=actin, Bottom band=KRAS. Calu-1 cells were infected with nothing (left lane), or lentiviruses containing shRNA constructs targeting GFP or KRAS. For KRAS, the shRNA was designed to match 19 nucleotides starting at the indicated nt.

[2] = tested on: BJ-TERT/LT/ST/RAS^V12 cells; assay: Cell death, viable cells counted using a hemacytometer; assay type: cell-based, human; conditions: 13 μM erastin A1, 23 μM antimycin, 126 μM 2-methoxyestradiol or the combinations
Caspase-3 = Caspase-3 cleavage (western blot); assay type: cell-based
[3] = tested on: BJ-TERT/LT/ST/RAS^V12 cells; assay: Oxidative species detection (H2DCF-DA, flow cytometry); assay type: cell-based, human; conditions: 4.6 μM erastin
Description: BJ-TERT/LT/ST/RAS^V12 cells (shown in histogram plots and in line graph, dark line) and BJ-TERT cells (shown in line graph only, light line) were treated with 4.6-μM erastin and the level of intracellular oxidative species determined using 2′7′-dichlorodihydrofluorescein diacetate (H2DCF-DA, Molecular Probes) and flow cytometry. Cells were seeded at 3×10^5 cells per dish in 60-mm dishes and allowed to grow overnight. Cells were incubated with 10 μM of H2DCF-DA for 10 minutes, harvested by trypsinization, washed twice with cold PBS, re-suspended in 100 μl of PBS and incubated with 5 μl of 50-μg/ml propidium iodide for 10 minutes. 400 μl of PBS was added and the solution analyzed by flow cytometry (FACSCalibur-Becton-Dickinson).
2′7′-dichlorodihydrofluorescein diacetate (H2DCF-DA, Molecular Probes) was used to measure oxidative species by flow cytometry. Non-fluorescent H2DCF-DA is cleaved by endogenous esterases and then is oxidized to generate fluorescent dichlorofluorescein (DCF). BJ-TERT/LT/ST/RAS^V12 and BJ-TERT cells were seeded at 3×10^5 cells per dish in 60-mm dishes and allowed to grow overnight. Cells were treated with 4.6 μM erastin for 2, 4, 6, 8, 10 and 12 h. […] 400 μl of PBS was added and the solution analyzed by flow cytometry (FACSCalibur-Becton-Dickinson). FL1-H indicates DCF fluorescence units detected.

SMILES: CCOc1ccccc1-n1c(C(C)N2CCN(C(=O)COc3ccc(Cl)cc3)CC2)nc2ccccc2c1=O (stereo not drawn) [erastin, 2-(1-{4-[2-(4-Chloro-phenoxy)-acetyl]-piperazin-1-yl}-ethyl)-3-(2-ethoxy-phenyl)-3H-quinazolin-4-one]
- RAS-selective lethality ([1]; HRAS^V12-expressing versus HRAS^V12-deficient cells): at least 16 fold
- RAS selectivity ([1]; IC50 in BJ-TERT/LT/ST versus BJ-TERT/LT/ST/RAS^V12): >16
- IC50 (Calu-1 cells): 5 µM
- Cell death (%) [2]: 100%
- Caspase-3 cleavage (Caspase-3): not cleaved
- Formation of oxidative species [3]: oxidizing species were detected

From patent publication US20080299076A1, “Compunds and compositions that cause non-apoptotic cell death and uses thereof” (priority 2006, published 2008)
